Assay results from the NIST ThermoML archive (doi:10.1016/j.fluid.2010.03.010).

Settings: Liquid, Vibrating tube method

CCOS(=O)(=O)[O-].CCn1cc[n+](C)c1 [1-ethyl-3-methylimidazolium ethyl sulfate]
Settings	mass density [kg/m3]
342.15 K, 101.33 kPa	1208.29
343.15 K, 100 kPa	1207.4
343.15 K, 101.33 kPa	1207.63
343.15 K, 250 kPa	1207.5
343.15 K, 500 kPa	1207.6
343.15 K, 1010 kPa	1207.8
343.15 K, 1990 kPa	1208.3
343.15 K, 4990 kPa	1209.6
343.15 K, 10010 kPa	1211.9
343.15 K, 14990 kPa	1214.1
343.15 K, 20010 kPa	1216.3
343.15 K, 24990 kPa	1218.3
343.15 K, 30000 kPa	1220.4
343.15 K, 35010 kPa	1222.4
343.15 K, 40000 kPa	1224.5
343.15 K, 45000 kPa	1226.4
343.15 K, 50000 kPa	1228.4
343.15 K, 54990 kPa	1230.3
343.15 K, 60000 kPa	1232.2
344.15 K, 101.33 kPa	1206.97
345.15 K, 101.33 kPa	1206.32
346.15 K, 101.33 kPa	1205.66
347.15 K, 101.33 kPa	1205.01
348.15 K, 101.33 kPa	1204.36
349.15 K, 101.33 kPa	1203.7
350.15 K, 101.33 kPa	1203.05
351.15 K, 101.33 kPa	1202.4
352.15 K, 101.33 kPa	1201.75
353.15 K, 100 kPa	1200.9
353.15 K, 101.33 kPa	1201.09
353.15 K, 250 kPa	1200.9
353.15 K, 500 kPa	1201
353.15 K, 1010 kPa	1201.3
353.15 K, 2000 kPa	1201.8
353.15 K, 4990 kPa	1203.1
353.15 K, 10010 kPa	1205.5
353.15 K, 15000 kPa	1207.6
353.15 K, 20000 kPa	1209.9
353.15 K, 24990 kPa	1212
353.15 K, 30010 kPa	1214.2
353.15 K, 34990 kPa	1216.2
353.15 K, 40000 kPa	1218.3
353.15 K, 45000 kPa	1220.2
353.15 K, 50000 kPa	1222.3
353.15 K, 54990 kPa	1224.2
353.15 K, 60000 kPa	1226.1
354.15 K, 101.33 kPa	1200.44
355.15 K, 101.33 kPa	1199.79
356.15 K, 101.33 kPa	1199.14
357.15 K, 101.33 kPa	1198.49
358.15 K, 101.33 kPa	1197.84
359.15 K, 101.33 kPa	1197.2
360.15 K, 101.33 kPa	1196.55
361.15 K, 101.33 kPa	1195.9
362.15 K, 101.33 kPa	1195.26
363.15 K, 100 kPa	1194.3
363.15 K, 101.33 kPa	1194.61
363.15 K, 250 kPa	1194.4
363.15 K, 500 kPa	1194.5
363.15 K, 1000 kPa	1194.7
363.15 K, 2000 kPa	1195.2
363.15 K, 4990 kPa	1196.6
363.15 K, 10010 kPa	1199
363.15 K, 14990 kPa	1201.3
363.15 K, 19990 kPa	1203.6
363.15 K, 25000 kPa	1205.7
363.15 K, 30000 kPa	1207.9
363.15 K, 34990 kPa	1210
363.15 K, 40000 kPa	1212.2
363.15 K, 45000 kPa	1214.2
363.15 K, 50000 kPa	1216.2
363.15 K, 55000 kPa	1218.2
363.15 K, 60000 kPa	1220.2
373.15 K, 100 kPa	1187.8
373.15 K, 250 kPa	1187.9
373.15 K, 500 kPa	1188
373.15 K, 1010 kPa	1188.2
373.15 K, 2000 kPa	1188.7
373.15 K, 4990 kPa	1190.2
373.15 K, 10010 kPa	1192.6
373.15 K, 14990 kPa	1194.9
373.15 K, 20010 kPa	1197.3
373.15 K, 25000 kPa	1199.5
373.15 K, 30010 kPa	1201.7
373.15 K, 34990 kPa	1203.9
373.15 K, 40000 kPa	1206.1
373.15 K, 45000 kPa	1208.1
373.15 K, 50000 kPa	1210.2
373.15 K, 54990 kPa	1212.3
373.15 K, 60000 kPa	1214.3
393.15 K, 100 kPa	1174.8
393.15 K, 250 kPa	1174.9
393.15 K, 500 kPa	1175
393.15 K, 1010 kPa	1175.3
393.15 K, 2000 kPa	1175.8
393.15 K, 4990 kPa	1177.3
393.15 K, 10000 kPa	1179.9
393.15 K, 15000 kPa	1182.3
393.15 K, 20010 kPa	1184.8
393.15 K, 24990 kPa	1187.1
393.15 K, 30010 kPa	1189.5
393.15 K, 34990 kPa	1191.7
393.15 K, 40000 kPa	1194
393.15 K, 45010 kPa	1196.2
393.15 K, 50000 kPa	1198.4
393.15 K, 55000 kPa	1200.5
393.15 K, 60000 kPa	1202.6
413.15 K, 100 kPa	1161.7
413.15 K, 250 kPa	1161.8
413.15 K, 500 kPa	1162
413.15 K, 1010 kPa	1162.2
413.15 K, 2000 kPa	1162.8
413.15 K, 4990 kPa	1164.4
413.15 K, 10000 kPa	1167.2
413.15 K, 14990 kPa	1169.7
413.15 K, 20010 kPa	1172.4
413.15 K, 24990 kPa	1174.8
413.15 K, 30000 kPa	1177.4
413.15 K, 34990 kPa	1179.7
413.15 K, 40000 kPa	1182.1
413.15 K, 45000 kPa	1184.4
413.15 K, 50000 kPa	1186.7
413.15 K, 54990 kPa	1188.9
413.15 K, 60000 kPa	1191.1
433.15 K, 100 kPa	1148.6
433.15 K, 250 kPa	1148.7
433.15 K, 500 kPa	1148.8
433.15 K, 1010 kPa	1149.1
433.15 K, 2000 kPa	1149.7
433.15 K, 4990 kPa	1151.4
433.15 K, 10010 kPa	1154.4
433.15 K, 14990 kPa	1157.1
433.15 K, 20010 kPa	1159.9
433.15 K, 24990 kPa	1162.5
433.15 K, 30010 kPa	1165.2
433.15 K, 34990 kPa	1167.6
433.15 K, 40000 kPa	1170.2
433.15 K, 45010 kPa	1172.6
433.15 K, 50000 kPa	1175.1
433.15 K, 54990 kPa	1177.4
433.15 K, 60000 kPa	1179.7
